Test results as given in patent US20240398981A1, “NOVEL NANOPARTICLES OF ANTIRETROVIRAL DRUGS, THEIR PREPARATION AND THEIR USE FOR THE TREATMENT OF VIRAL INFECTIONS” (CENTRE NATIONAL DE LA RECHERCHE SCIENTIFIQUE, priority 2018, published 2024).

Experiments:
HIV-1BaL = test: Inhibition of HIV-1 infection in monocyte-derived macrophages; type: cell-based; conditions: six days of culture, p24 in supernatants, dose-dependent
Description: (§1) FIG. 3 represents the inhibition of HIV-1 replication in AZT-NP-treated macrophages. Monocyte-derived macrophages were infected with CCR5-tropic HIV-1Ba-L for 3 h. After several washes, increasing concentrations of AZT derivatives were added to infected macrophages for 6 days of culture. The level of virus replication was monitored in culture supernatants by the p24 antigen capture ELISA. The infection inhibition is expressed as percentage of the average of three independent experiments (A). The frequency of infected cells was determined by flow cytometry after a costaining of macrophages with mAbs anti-CD206 (a marker of macrophages) and mAbs anti-p24 which target intracellular HIV-1 (B). Addition of AZT derivatives was followed by the increase of the size of macrophages as assessed by the Forward-Scattered light parameter (FSC) in flow cytometry (C). […] Using flow cytometry, the expression of the two HIV-1 coreceptors CCR5 (E) and CXCR4 (F) was determined at the surface of AZT derivatives-treated macrophages.
After 6 days of activation or differentiation, cells were washed twice and seeded into 96-well culture plates ([…]). […] The level of virus replication was monitored by HIV-1 p24 antigen ELISA.
Following six days of infection, the frequency of HIV-1-infected cells was determined by flow cytometry to detect intracellular HIV-1 p24 molecule. […]

HIV-1 = conditions: DCs infected, then treated with increasing concentrations, T cells added, 6 days
Description: The question of the impact of NP on HIV-1 transmission from DCs to autologous T cells was addressed. DCs were first infected with HIV-1, then incubated with increasing concentrations of AZT derivatives before T cells were added.
To assess the transmission of HIV-1 from DCs to autologous T-cells, DCs were incubated into 96-well culture plates (1×10^5 cells/well) and infected with HIV-1 (1 ng p24 antigen) for 3 h at 37° C. in a 5% CO2 atmosphere. Following four washes, DCs were shortly incubated with increasing concentrations of indicated molecules or AZT (2 μM), and autologous stimulated T cells were added onto HIV-exposed DCs at DC: T-cell ratio of 1:5. Cells were cultured for 6 days. Each sample was performed in triplicate. Culture supernatants were harvested every 3 days and fresh medium with compounds was added. Supernatants were inactivated with 1% Triton X-100 and frozen at −20° C. Viral production by T lymphocytes was evaluated at the sixth day of the co-culture by measurement of p24 antigen in supernatants using capture ELISA.

CCR5 = test: Surface expression of HIV-1 coreceptor on treated macrophages (flow cytometry); type: cell-based, human
Description: as §1
Following six days of infection, the frequency of HIV-1-infected cells was determined by flow cytometry to detect intracellular HIV-1 p24 molecule. […] Stained cells were immediately acquired on a FACScalibur (Becton Dickinson) and analyzed with FlowJo software.

[1] = system: J774A.1 mouse macrophages; test: [3H]-AZT-TP cellular uptake; type: cell-based; conditions: J774A.1 cells, up to 8 hour exposure
Description: Nanoparticles containing [methyl-^3H]-AZT-TP were prepared and purified as described above then diluted 1:10 in cell culture medium (in order to maintain cell viability above 80% as determined by MTT tests), so to have 70 nCi/well. A control solution of AZT-TP at the same final radioactivity concentration was used for comparison.
Cells were recovered from the culture flasks, counted and seeded in 6-well plates, at a surface density of 800,000 cells/well for J774A.1 and 160,000 for THP-1 using 2 mL medium per well. After 24 h incubation, the medium was withdrawn and 2 mL of AZT-TP nanoparticles or free AZT-TP were added in each well. Nanoparticles and AZT-TP were incubated with cells for 2 and 8 hours, after which the uptake was stopped by removing the cell culture medium. The cells were washed twice with PBS (Lonza) to remove loosely bound compounds and then lysed with 1 mL Solvable (Perkin-Elmer, France). The radioactivity of the supernatant medium, the washing supernatants and the cell lysate were counted. The uptake kinetics of nanoparticle AZT-TP was studied for 2 and 8 hours and compared to that of free AZT-TP.

For `Cc1cn([C@H]2C[C@H](N=[N+]=[N-])[C@@H](CO)O2)c(=O)[nH]c1=O` [AZT, zidovudine], the “production of HIV-1 by macrophages” value (HIV-1BaL) was “inhibited”, the “production of HIV-1 after transmission from DCs to autologous T cells” value (HIV-1) was “inhibited” and the “expression of HIV-1 coreceptor CCR5 at macrophage surface” value (CCR5) was “did not interfere”.

`Cc1cn([C@H]2C[C@H](N=[N+]=[N-])[C@@H](COP(=O)(O)OP(=O)(O)OP(=O)(O)O)O2)c(=O)[nH]c1=O` [AZT-TP] was tested, and the “production of HIV-1 by macrophages” value (HIV-1BaL) was “inhibited”, the AZT-TP uptake [1] was “around 3 nmol per million cells” and the “production of HIV-1 after transmission from DCs to autologous T cells” value (HIV-1) was “inhibited”. For the same compound, the “expression of HIV-1 coreceptor CCR5 at macrophage surface” value (CCR5) was “did not interfere”.
